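Interpolation was linear, between the two tested concentrations surrounding the appropriate level; five concentrations were tested over 48 hours in 96-well plates. TGI: total growth inhibition.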
Columns and labels:
Experiment in all cases: NCI tumour cell line growth inhibition, 48 h
[1] = system: 786-0 renal
[2] = system: A498 renal
[3] = system: A549 NSCLC
[4] = system: ACHN renal
[5] = system: CAKI-1 renal
[6] = system: CCRF-CEM leukemia
[7] = system: COLO 205 colon
[8] = system: DU-145 prostate
[9] = system: EKVX NSCLC
[10] = system: HCC-2998 colon
[11] = system: HCT-116 colon
[12] = system: HCT-15 colon
[13] = system: HL-60(TB) leukemia
[14] = system: HOP-62 NSCLC
[15] = system: HOP-92 NSCLC
[16] = system: HT29 colon
[17] = system: K-562 leukemia
[18] = system: KM12 colon
[19] = system: LOX IMVI melanoma
[20] = system: M14 melanoma
[21] = system: MCF7 breast
[22] = system: MDA-MB-231 breast
[23] = system: MDA-MB-435
[24] = system: MDA-N
[25] = system: MOLT-4 leukemia
[26] = system: NCI-H226 lung
[27] = system: NCI-H23 lung
[28] = system: NCI-H460 lung
[29] = system: NCI-H522 lung
[30] = system: NCI/ADR-RES ovarian
[31] = system: OVCAR-3 ovarian
[32] = system: OVCAR-4 ovarian
[33] = system: OVCAR-5 ovarian
[34] = system: OVCAR-8 ovarian
[35] = system: PC-3 prostate
[36] = system: RPMI-8226 leukemia
[37] = system: RXF 393 renal
[38] = system: SF-268 CNS
[39] = system: SF-295 CNS
[40] = system: SF-539 CNS
[41] = system: SK-MEL-2 melanoma
[42] = system: SK-MEL-28 melanoma
[43] = system: SK-MEL-5 melanoma
[44] = system: SK-OV-3 ovarian
[45] = system: SN12C renal
[46] = system: SNB-19 CNS
[47] = system: SW-620 colon
[48] = system: T-47D breast
[49] = system: TK-10 renal
[50] = system: U251 CNS
[51] = system: UACC-257 melanoma
[52] = system: UACC-62 melanoma
[53] = system: UO-31 renal
[54] = system: IGROV1 ovarian
[55] = system: MALME-3M melanoma
[56] = system: SNB-75 CNS
[57] = system: SR leukemia

Structure (SMILES): COC(=O)c1c(C(=O)OC)c2ccc(-c3ccc(Cl)cc3)nn2c1C(=O)c1ccc([N+](=O)[O-])cc1
- TGI [1]: > 100 µM
- TGI [2]: > 100 µM
- TGI [3]: > 100 µM
- TGI [4]: > 100 µM
- TGI [5]: 76.2 µM
- TGI [6]: > 100 µM
- TGI [7]: > 100 µM
- TGI [8]: > 100 µM
- TGI [9]: 84.4 µM
- TGI [10]: > 100 µM
- TGI [11]: > 100 µM
- TGI [12]: > 100 µM
- TGI [13]: > 100 µM
- TGI [14]: > 100 µM
- TGI [15]: 39.5 µM
- TGI [16]: > 100 µM
- TGI [17]: > 100 µM
- TGI [18]: > 100 µM
- TGI [19]: > 100 µM
- TGI [20]: > 100 µM
- TGI [21]: > 100 µM
- TGI [22]: > 100 µM
- TGI [23]: > 100 µM
- TGI [24]: > 100 µM
- TGI [25]: 82.6 µM
- TGI [26]: > 100 µM
- TGI [27]: > 100 µM
- TGI [28]: > 100 µM
- TGI [29]: 37.3 µM
- TGI [30]: > 100 µM
- TGI [31]: > 100 µM
- TGI [32]: > 100 µM
- TGI [33]: > 100 µM
- TGI [34]: > 100 µM
- TGI [35]: > 100 µM
- TGI [36]: 55.3 µM
- TGI [37]: 55.5 µM
- TGI [38]: > 100 µM
- TGI [39]: > 100 µM
- TGI [40]: > 100 µM
- TGI [41]: > 100 µM
- TGI [42]: > 100 µM
- TGI [43]: > 100 µM
- TGI [44]: > 100 µM
- TGI [45]: > 100 µM
- TGI [46]: > 100 µM
- TGI [47]: > 100 µM
- TGI [48]: > 100 µM
- TGI [49]: 57.9 µM
- TGI [50]: > 100 µM
- TGI [51]: > 100 µM
- TGI [52]: > 100 µM
- TGI [53]: > 100 µM

Structure (SMILES): CC1(C)CSCC(C)(C)C(=N/N)/C1=N\N
- TGI [1]: > 100 µM
- TGI [2]: > 100 µM
- TGI [3]: > 100 µM
- TGI [4]: > 100 µM
- TGI [5]: > 100 µM
- TGI [7]: > 100 µM
- TGI [8]: > 100 µM
- TGI [9]: > 100 µM
- TGI [10]: > 100 µM
- TGI [11]: > 100 µM
- TGI [12]: > 100 µM
- TGI [13]: > 100 µM
- TGI [14]: > 100 µM
- TGI [15]: > 100 µM
- TGI [16]: > 100 µM
- TGI [54]: > 100 µM
- TGI [17]: > 100 µM
- TGI [18]: > 100 µM
- TGI [19]: > 100 µM
- TGI [20]: > 100 µM
- TGI [55]: > 100 µM
- TGI [21]: > 100 µM
- TGI [23]: > 100 µM
- TGI [24]: > 100 µM
- TGI [26]: > 100 µM
- TGI [27]: > 100 µM
- TGI [28]: > 100 µM
- TGI [29]: > 100 µM
- TGI [30]: > 100 µM
- TGI [31]: > 100 µM
- TGI [33]: > 100 µM
- TGI [34]: > 100 µM
- TGI [35]: > 100 µM
- TGI [38]: > 100 µM
- TGI [39]: > 100 µM
- TGI [40]: > 100 µM
- TGI [41]: > 100 µM
- TGI [42]: > 100 µM
- TGI [43]: > 100 µM
- TGI [44]: > 100 µM
- TGI [45]: > 100 µM
- TGI [46]: > 100 µM
- TGI [56]: > 100 µM
- TGI [57]: > 100 µM
- TGI [47]: > 100 µM
- TGI [48]: > 100 µM
- TGI [49]: > 100 µM
- TGI [50]: > 100 µM
- TGI [51]: > 100 µM
- TGI [52]: > 100 µM

Source: PubChem BioAssay (NCI)
